In ChEMBL document CHEMBL2331194, “Ligerin, an antiproliferative chlorinated sesquiterpenoid from a marine-derived Penicillium strain” (J Nat Prod, 2013):

Key:
[1] = Antiproliferative activity against mouse POS1 cells assessed as inhibition of cell viability after 72 hrs by XTT assay; type: functional, cell-based; conditions: POS1, 72 h
[2] = tested on: L929; test: cells; conditions: Mus musculus, L929, 72 h
Description: Antiproliferative activity against mouse L929 cells assessed as inhibition of cell viability after 72 hrs by XTT assay

[3] = cells; conditions: Rattus norvegicus, 72 h
Description: Antiproliferative activity against rat AT6-1 cells assessed as inhibition of cell viability after 72 hrs by XTT assay

[4] = tested on: KB; test: cells; conditions: Homo sapiens, 72 h
Description: Antiproliferative activity against human KB cells assessed as inhibition of cell viability after 72 hrs by MTT assay

[5] = Antiproliferative activity against rat OSRGA cells assessed as inhibition of cell viability after 72 hrs by XTT assay; type: functional, cell-based
[6] = Antiproliferative activity against mouse L929 cells assessed as inhibition of cell viability at 60 to 2400 nM after 72 hrs by XTT assay; type: cell-based; set-up: dose or concentration left out as unconfirmed
[7] = Antiproliferative activity against rat AT6-1 cells assessed as inhibition of cell viability at 60 to 2400 nM after 72 hrs by XTT assay; type: functional
[8] = Antiproliferative activity against rat OSRGA cells assessed as inhibition of cell viability at 60 to 2400 nM after 72 hrs by XTT assay; type: functional

IC50 [3] | IC50 [4] | SMILES | IC50 [1] | IC50 [2] | IC50 [5] | inhibition at 72 h [6] | inhibition (INH) [7] | inhibition (INH) [8]
29400 nM | > 100000 nM | C=C(C)C1(O)OC(=O)C=C1OC (centres undefined) [PENICILLIC ACID] | 7800 nM | 12900 nM |  |  |  | 
 |  | COc1cccc2c1C(=O)c1c(O)c3c(c(O)c1C2=O)C[C@@](O)(C(=O)CO)C[C@@H]3O[C@H]1C[C@H](N)[C@H](O)[C@H](C)O1 [DOXORUBICIN] | 43 nM |  | 93 nM |  |  | 
> 2400 nM | > 478000 nM | CO[C@@H]1[C@H](OC(=O)CCC(=O)O)CC[C@](O)(CCl)[C@H]1[C@@]1(C)O[C@@H]1CC=C(C)C [LIGERIN] | 117 nM | > 2400 nM | > 2400 nM | 35% | 20% | 22%
